Source: patent US20040072246A1, “System and method for identifying t cell and other epitopes and the like” (priority 2003, published 2004)
Where no end group is shown, it is not given here.

Key:
Format in all cases: cell-based, human
T-cell clone CSF-3 = assay: Proliferative assay of T-cell clone CSF-3 (3H-thymidine incorporation); conditions: for EC50: peptide concentration inducing half-maximal proliferation, TCC CSF-3, Table 5; for Potency EC50: concentration inducing half-maximal proliferation; for Potency max. response / Potency % of Max. response / Potency % of max. response: percentage of highest proliferative response (100% = 28,255 c.p.m. for peptide 77)
Protocol: (§1) The proliferation of TCC in response to PS-SCL or individual peptides was tested by seeding in duplicate 2×10^4 T cells, 5×10^4 irradiated PBMC with or without mixtures from PS-SCL or peptide. Proliferation was measured by [^3H]-thymidine incorporation (Hemmer B. et al., 2000, J Immunol 164:861).
(§2) The proliferation of T-cell clones in response to PS-SCL or individual peptides was tested by seeding in duplicate 2×10^4 T-cells, 5×10^4 irradiated peripheral blood mononuclear cells with or without 200 μg/ml PS-SCL or peptide (Hemmer, B. et al. 1998, J Pept Res 52: 338-345). Proliferation was measured by ^3H-thymidine incorporation (Hemmer, B. et al. 1997, J Exp Med 185: 1651-1659). Experiments were repeated at least twice. HLA restriction was determined by using bare lymphocyte syndrome cells transfected with DR2a (DRB5*0101) or DR2b (DRB1*1501) (provided by G. Nepom, University of Washington, Seattle) (Kovats, S. et al. 1994, J Exp Med 179: 2017-2022). The proliferation of peripheral blood mononuclear cells was measured in an IL-7-modified 7-day primary proliferation assay. Peripheral blood mononuclear cells (1×10^5 per well; 10 wells each and 10 control wells per plate) were seeded with 10 ng/ml IL-7 and 15 μg/ml peptide. Then, 1 μCi ^3H-thymidine/well was added at day 7 for 12 h before radioactivity was measured. Wells were considered positive if the counts per minute exceeded the average background proliferation+3 s.d. (Reece J. C. et al., 1993, Immunol 151: 6175-6184).

[1] = test system: peripheral blood mononuclear cells; assay: IL-7-modified 7-day primary proliferation assay of peripheral blood mononuclear cells; conditions: number of wells of 10 with positive primary proliferative response, 15 μg/ml peptide
Protocol: as §2

[2] = test system: TCRζ-chain phosphoisoforms / ZAP-70 in CSF-3 cells; assay: T-cell-receptor signaling (tyrosine phosphorylation of TCR subunits, ZAP-70 immunoprecipitation); conditions: CSF-3 cells stimulated 5 or 10 min
Protocol: T-cells (1×10^6) were added to peptide-pulsed bare lymphocyte syndrome cells (2×10^6) and, after centrifugation (10 s at 300 g), were incubated at 37° C., washed once with PBS and incubated for 25 min on ice in lysis buffer (1% Nonidet-P40, 10 mM Tris-HCl, pH 7.2, 140 mM NaCl, 2 mM EDTA, 5 mM iodoacetamide, 1 mM Na3VO4 and complete protease inhibitor ‘cocktail’; Boehringer). After nuclear debris were removed, proteins in lysate supernatants were immunoprecipitated by incubation at 4° C. for 12 h with rabbit antibody against ZAP-70 (provided by L. Samelson, National Institute of Child Health and Human Development, National Institutes of Health). Proteins were separated by SDS-PAGE and immunoblotted with 4G10, a mouse monoclonal antibody against phosphotyrosine (Upstate Biotechnology, Lake Placid, N.Y.).

TCC GP5F11 = assay: Proliferative assay of TCC GP5F11 (3H-thymidine incorporation); conditions: FIG. 4; result in words
Protocol: as §1

[3] = human autoantigenic mimics, Table 9
[4] = background 1,306 ± 582 c.p.m., Table 9
[5] = B. burgdorferi peptides, Table 8
[6] = background 2,899 ± 1,417 c.p.m., Table 8
[7] = background 2,899 ± 1,417 c.p.m., Table 10

Substance	EC50 (T-cell clone CSF-3) [µg/mL]	Potency EC50 (T-cell clone CSF-3; [5]) [µg/mL]	Potency % of Max. response (T-cell clone CSF-3; Table 8) [%]	PB PP [1, 6]	also measured
DNIFKKETLI [D N I F K K E T L I, DNIFKKETLI]	1	–	–	–	–
DNITSSVLFN [Peptide 71, DNITSSVLFN]	–	–	–	–	Potency EC50 (T-cell clone CSF-3; [3]): 0.1 to 1 µg/mL; Potency max. response (T-cell clone CSF-3; Table 9): 60.6%; PB PP [1, 4]: 5; effect on early TCR signaling events (TCRζ-chain p38 phospho-isoforms, recruitment of active ZAP-70) [2]: fall agonist response
ENIKKILLRE [Peptide 46, ENIKKILLRE]	–	0.1 to 1	65.1	3	–
ENIYYSSVRT [Peptide 77, ENIYYSSVRT]	–	–	–	–	Potency EC50 (T-cell clone CSF-3; viral mimic peptides, Table 10): 1 to 10 µg/mL; Potency % of max. response (T-cell clone CSF-3; Table 10): 100%; PB PP [1, 7]: 3
ENVKKSRRLI [Peptide 66, ENVKKSRRLI]	–	–	–	–	Potency EC50 (T-cell clone CSF-3; [3]): 0.1 to 1 µg/mL; Potency max. response (T-cell clone CSF-3; Table 9): 64.1%; PB PP [1, 4]: 0
FFIKKRSLII [Peptide 54, FFIKKRSLII]	1	1 to 10	59.8	5	–
FNIIKSLLGG [52′, FNIIKSLLGG]	–	–	–	–	Potency EC50 (T-cell clone CSF-3; viral mimic peptides, Table 10): 1 to 10 µg/mL; stimulation (proliferation) of T-cell clone CSF-3 (T-cell clone CSF-3; result in words): stimulatory
FNIIKVHSSL [Peptide 37, FNIIKVHSSL]	–	0.001 to 0.01	69.3	1	–
FNITSSIRNK [Peptide 75, FNITSSIRNK]	–	–	–	–	Potency EC50 (T-cell clone CSF-3; viral mimic peptides, Table 10): 1 µg/mL; Potency % of max. response (T-cell clone CSF-3; Table 10): 63.5%; PB PP [1, 7]: 1
FNITSSTCEL [Peptide 64, FNITSSTCEL]	–	–	–	–	Potency EC50 (T-cell clone CSF-3; [3]): 0.1 to 1 µg/mL; Potency max. response (T-cell clone CSF-3; Table 9): 66.3%; PB PP [1, 4]: 1
FNIYKRVVDN [F N I Y K R V V D N, FNIYKRVVDN]	1	–	–	–	–
GHIKKKRVEA [Peptide 63, GHIKKKRVEA]	–	–	–	–	Potency EC50 (T-cell clone CSF-3; [3]): 1 to 10 µg/mL; Potency max. response (T-cell clone CSF-3; Table 9): 56.5%; PB PP [1, 4]: 0
LHIISKRVEA [Peptide 61, LHIISKRVEA]	–	–	–	–	Potency EC50 (T-cell clone CSF-3; [3]): 0.1 to 1 µg/mL; Potency max. response (T-cell clone CSF-3; Table 9): 70.0%; PB PP [1, 4]: 0
LNIKNSKLEI [Peptide 30, LNIKNSKLEI]	–	<0.001	64.2	0	–
LNITSSSYLF [Peptide 42, LNITSSSYLF]	–	1 to 10	71.4	0	–
NNIDKKVYTN [N N I D K K V Y T N, NNIDKKVYTN]	1 to 10	–	–	–	–

Substance	EC50 (T-cell clone CSF-3) [µg/mL]	Potency EC50 (T-cell clone CSF-3; [5]) [µg/mL]	Potency % of Max. response (T-cell clone CSF-3; Table 8) [%]	PB PP [1, 6]	also measured
NNIKSKVDNA [Peptide 47, NNIKSKVDNA]	–	1 to 10	80.6	0	–
NNIYKKALIS [Peptide 59, NNIYKKALIS]	1	0.1 to 1	68.1	3	effect on early TCR signaling events (TCRζ-chain p38 phospho-isoforms, recruitment of active ZAP-70) [2]: fall agonist response
PIP5 KIII246-255: low-scoring peptide derived from H. sapiens phosphatidylinositol-4-phosphate 5-kinase type III (LDPSEPRTPV; UniProt Q9Y2I7 246-255, looked up, fragment)	–	–	–	–	proliferative response of TCC GP5F11 (potency) (TCC GP5F11): non-stimulatory
PNITFSVVYN [Peptide 74, PNITFSVVYN]	–	–	–	–	Potency EC50 (T-cell clone CSF-3; viral mimic peptides, Table 10): 0.1 to 1 µg/mL; Potency % of max. response (T-cell clone CSF-3; Table 10): 78.3%; PB PP [1, 7]: 0
QAIGKKTQNN [Peptide 26, QAIGKKTQNN]	–	<0.001	80.8	3	–
RNIFKKTVEN [R N I F K K T V E N, RNIFKKTVEN]	>100	–	–	–	–
SFIYSVVCLV [Peptide 62, SFIYSVVCLV]	–	–	–	–	Potency EC50 (T-cell clone CSF-3; [3]): 0.1 to 1 µg/mL; Potency max. response (T-cell clone CSF-3; Table 9): 75.7%; PB PP [1, 4]: 9
SNIIKKTSED [Peptide 57, SNIIKKTSED]	1	0.1 to 1	65.2	4	–
SNIIKSLSLF [S N I I K S L S L F, SNIIKSLSLF]	0.1 to 1	–	–	–	–
SNIKSKLILV [S N I K S K L I L V, SNIKSKLILV]	1	–	–	–	–
TLITKKISAI [Peptide 28, TLITKKISAI]	–	<0.001	65.9	1	–
WMKQNIGRFL [predicted stimulatory peptide with optimal amino acids in each position for TCC GP5F11]	–	–	–	–	proliferative response of TCC GP5F11 (potency) (TCC GP5F11): two orders of magnitude more potent than the target sequence
YNIIVSSLLL [Y N I I V S S L L L, YNIIVSSLLL]	1 to 10	–	–	–	–
YNIKKIKVED [Peptide 38, YNIKKIKVED]	–	0.1 to 1	62.7	1	–
YVKQNTLKLA (listed as Influenza virus) [Flu-HA308-317, influenza virus hemagglutinin decamer, target peptide of TCC GP5F11, reference compound]	–	–	–	–	proliferative response of TCC GP5F11 (potency) (TCC GP5F11): intermediate potency
